Data set [1] has as its system HepG2. The data set can be described thus: (§1) Inhibition of hepatitis B virus replication in the HepAD38 cell line. In kind it is functional, cell-based. The following applies: Homo sapiens.
For data set [2], the system named is Human immunodeficiency virus 1. The data set can be described thus: Inhibition of HIV-1 replication by 50% (no effect at this concentration). The class given is functional, organism-based.
The next data set concerns Human alphaherpesvirus 1. The data set can be described thus: Inhibition of HSV-1 replication by 50% (no effect at this concentration). The class given is functional, organism-based.
For data set [3], the system named is HepG2. The data set can be described thus: The concentration of compound which inhibits hepatitis B virus replication in the HepAD38 cell line. As to conditions: Homo sapiens.
The subject of data set [4] is Vesicular stomatitis virus. The data set can be described thus: Inhibition of Vesicular stomatis virus replication by 50% (no effect at this concentration). The class given is functional, organism-based.
Data set [5] can be described thus: Inhibition of Woodchuck HBV replication by 50% (no effect at this concentration). In kind it is functional, organism-based. As to conditions: Marmota monax.
The nature of data set [6]: Inhibition of Duck HBV replication by 50% (no effect at this concentration). As to conditions: Anas sp. The class given is functional, organism-based.
A further data set deals with Newcastle disease virus. The data set can be described thus: Inhibition of Newcastles disease virus replication by 50% (no effect at this concentration). The following applies: avian paramyxovirus 1. The class given is functional, organism-based.
Data set [7] can be described thus: Concentration which inhibits hepatitis B virus replication in the HepAD38 cell line. The class given is functional. As to conditions: Homo sapiens.
Data set [8] is described as follows: as §1. The class given is functional, cell-based. The following applies: Homo sapiens.
Data set [9] can be described thus: Reduction of viable cell numbers by 50% was evaluated by HepAD38 cellular assay. The class given is ADME, cell-based. As to conditions: human, HepAD38 cells; read-out: TC50 (the source's name).

A word on the EC50: it is the concentration needed to bring the measured effect to its halfway point. A higher EC50 goes with weaker potency. The term EC90 denotes the point of the concentration-response curve where the effect stands at 90%. Read a high EC90 as weaker potency.

In turn, `O=C(Nc1nccs1)/C(NC(=O)c1ccccc1)=C(\Cl)c1ccccc1` came in with an EC50 with HepG2 [1] greater than 75 µM.

As for `Nc1nc(=O)n([C@@H]2CS[C@H](CO)O2)cc1F` [EMTRICITABINE], the EC50 in data set [2] was greater than 81 µM; with HepG2 [1] it was 0.03 µM; in the data set with Human alphaherpesvirus 1, greater than 81 µM; in [4], greater than 81 µM; in data set [5], greater than 81 µM; in data set [6], greater than 81 µM. The molecule also yielded an EC50 in the data set with Newcastle disease virus greater than 81 µM. The same molecule came in with a concentration for an effect of 90% (EC90) with HepG2 [3] of 0.3 µM.

Regarding `COc1ccccc1/C(Br)=C(\NC(=O)c1ccc([N+](=O)[O-])cc1)C(=O)N1CCCCC1`, the 90% effect concentration (EC90) in data set [7] was 0.92 µM. In addition, the concentration giving a half-maximal response (EC50) was greater than 81 µM in data set [2]; 0.13 µM in data set [8]; greater than 81 µM with Human alphaherpesvirus 1; greater than 81 µM in data set [4]; greater than 81 µM in [5]; greater than 81 µM in [6]. Besides, the EC50 with Newcastle disease virus is greater than 81 µM. Moreover, the CC50 in data set [9] was greater than 61 µM.

In turn, `O=C(N/C(C(=O)N1CCOCC1)=C(/Cl)c1ccccc1)c1ccccc1` had an EC50 with HepG2 [1] of 7.3 µM.

Regarding `Cc1ccc(C(=O)N/C(C(=O)N2CCCCC2)=C(/Br)c2ccccc2)cc1`, the 90% effect level in data set [7] (EC90) was put at 12 µM. The EC50 in data set [2] was greater than 81 µM; in data set [8] it was 2.1 µM; in the data set with Human alphaherpesvirus 1, greater than 81 µM; in data set [4], greater than 81 µM; in data set [5], greater than 81 µM; in [6], greater than 81 µM. This molecule displayed a 50% effective concentration (EC50) with Newcastle disease virus greater than 81 µM. The CC50 in data set [9] is greater than 70 µM.

`O=C(NCc1ccccc1)/C(NC(=O)c1ccccc1)=C(\Cl)c1ccccc1` gave an EC50 in the data set with HepG2 [1] greater than 75 µM.

Consider `O=C(N/C(C(=O)N1CCCCCCC1)=C(/Cl)c1ccccc1)c1ccccc1`, for which the 50% effective concentration (EC50) in the data set with HepG2 [1] was greater than 75 µM.

As to `O=C(N/C(C(=O)N1CCCCC1)=C(/Br)c1ccc(F)cc1)c1ccc([N+](=O)[O-])cc1`, the EC90 in data set [7] was found to be 11 µM. Also, the EC50 in [2] is greater than 81 µM; in [8] it was 0.72 µM; in the data set on Human alphaherpesvirus 1, greater than 81 µM; in data set [4], greater than 81 µM; in data set [5] it was greater than 81 µM; in [6], greater than 81 µM. In the data set with Newcastle disease virus, this molecule registered a concentration giving a half-maximal response (EC50) greater than 81 µM. Also, in data set [9], the CC50 is greater than 63 µM.

`O=C(N/C(C(=O)N1CCCCC1)=C(/Br)c1ccccc1)c1ccc(C(F)(F)F)cc1` yielded a concentration for an effect of 90% (EC90) in [7] of 34 µM. The concentration for a half-maximal effect (EC50) in data set [2] was greater than 81 µM; in data set [8], 5 µM; in the data set on Human alphaherpesvirus 1 it was greater than 81 µM; in [4], greater than 81 µM; in [5], greater than 81 µM; in data set [6] it was greater than 81 µM. The EC50 with Newcastle disease virus is greater than 81 µM. Further, the CC50 in data set [9] was greater than 62 µM.

Molecule `COc1ccc(C(=O)N/C(C(=O)N2CCCCC2)=C(/Br)c2ccccc2)cc1` had a 90% effect concentration (EC90) in data set [7] of 19 µM. For the same molecule, the concentration for a half-maximal effect (EC50) is greater than 81 µM in data set [2]; 1.9 µM in [8]; greater than 81 µM in the data set on Human alphaherpesvirus 1; greater than 81 µM in data set [4]; greater than 81 µM in data set [5]; greater than 81 µM in data set [6]. This molecule also returned a concentration for a half-maximal effect (EC50) in the data set with Newcastle disease virus greater than 81 µM. Also, in data set [9], the CC50 is greater than 67 µM.

As for `O=C(N/C(C(=O)N1CCCCCC1)=C(/Cl)c1ccccc1)c1ccccc1`, the concentration for a half-maximal effect (EC50) in the data set on HepG2 [1] was greater than 75 µM.

`O=C(N/C(C(=O)N1CCCCC1)=C(/Cl)c1ccccc1)c1ccccc1` returned an EC90 in data set [7] of 13 µM. The 50% effective concentration (EC50) in [2] is greater than 81 µM; in data set [8] it was 1.2 µM; with Human alphaherpesvirus 1, greater than 81 µM; in [4], greater than 81 µM; in [5] it was greater than 81 µM; in data set [6], greater than 81 µM. For the same molecule, the EC50 with Newcastle disease virus was greater than 81 µM. The CC50 in data set [9] was greater than 81 µM.

For the molecule `O=C(N/C(C(=O)N1CCCC1)=C(/Cl)c1ccccc1)c1ccccc1`, the response in the data set with HepG2 [1] was half-maximal at 5.6 µM (EC50).

As for `Cc1ccccc1/C(Br)=C(\NC(=O)c1ccc([N+](=O)[O-])cc1)C(=O)N1CCCCC1`, the 90% effect concentration (EC90) in data set [7] stood at 4.6 µM. Moreover, the 50% effective concentration (EC50) in data set [2] is greater than 81 µM; in data set [8] it was 0.6 µM; with Human alphaherpesvirus 1, greater than 81 µM; in [4], greater than 81 µM; in [5], greater than 81 µM; in [6], greater than 81 µM. The same molecule showed an EC50 in the data set with Newcastle disease virus greater than 81 µM. Moreover, the CC50 in data set [9] is greater than 63 µM.

`O=C(N/C(C(=O)N1CCCCC1)=C(/Br)c1ccccc1)c1ccc(F)cc1` had a 90% effect concentration (EC90) in data set [7] of 4.4 µM. For the same molecule, the EC50 is greater than 81 µM in data set [2]; 0.86 µM in data set [8]; greater than 81 µM in the data set with Human alphaherpesvirus 1; greater than 81 µM in [4]; greater than 81 µM in data set [5]; greater than 81 µM in data set [6]. Further, the concentration giving a half-maximal response (EC50) with Newcastle disease virus is greater than 81 µM. Further, the CC50 in data set [9] is greater than 69 µM.

Turning to `O=C(N/C(C(=O)N1CCCCC1)=C(/Cl)c1ccc(F)cc1)c1ccccc1`, the EC90 in [7] is 28 µM. The concentration for a half-maximal effect (EC50) was greater than 81 µM in data set [2]; 3.1 µM in data set [8]; greater than 81 µM in the data set with Human alphaherpesvirus 1; greater than 81 µM in data set [4]; greater than 81 µM in [5]; greater than 81 µM in data set [6]. For the same molecule, the EC50 in the data set with Newcastle disease virus was greater than 81 µM. Moreover, in data set [9], the CC50 was greater than 75 µM.

Regarding `CCN(CC)C(=O)/C(NC(=O)c1ccccc1)=C(\Cl)c1ccccc1`, the concentration giving a half-maximal response (EC50) in the data set on HepG2 [1] was greater than 75 µM.

Source of the values: ChEMBL document CHEMBL1132834, “Phenylpropenamide derivatives as inhibitors of hepatitis B virus replication” (Bioorg Med Chem Lett, 2000).
